Measurements: patent publication EP0748793A1, “KETOPANTHENOL WITH ACETYLATING PROPERTIES” (TOVARISCHESTVO S OGRANICHENNOI OTVETSTVENNOSTJU " PANT", priority 1994, dated 1995)
“Also recorded” adds a separate entry of the source.

Key:
[1] = test system: acetylation of aromatic amines (N-acetylation); test: Acetylating properties of the organism: acetylation of sodium sulfacyl, arylamines determined in urine; format: in vivo, white rats; details: for % of excretion from the dose, In acetylated form / % of excretion from the dose, In free form / Acetylating properties of the organism: Na sulfacyl acetylating in the organism of rats; for Concentration in urine, In acetylated form / Concentration in urine, In free form: Na sulfacyl in rat urine; for Na sulfacyl excretion, Sulfacyl isolation M ± m, In acetylated form / Na sulfacyl excretion, Sulfacyl isolation M ± m, In free form / Na sulfacyl excretion, Sulfacyl isolation M ± m, Total / Na sulfacyl excretion, Excretion % from the dose: rats; for Na sulfacyl excretion, Sulfacyl isolation M ± m, In acetylated form / Na sulfacyl excretion, Sulfacyl isolation M ± m, In free form / Na sulfacyl excretion, Sulfacyl isolation M ± m, Total: agent i.p. for 4 days, then Na sulfacyl 20 mg/kg i.p., urine; for Na sulfacyl excretion, Excretion % from the dose: total sulfacyl in urine relative to the sulfacyl dose
Procedure: The level of the organism supply with a vitamin is determined by the study of the reaction of acetylation of exogenous aromatic amines. The total acetylating properties of the organism were assessed by the method of quantitative determination of the content of arylamines in the examined substrate (urine).
Sodium sulfacyl was chosen as the substance for acetylation.
The influence of 4-days of injections of ketopanthenol on the acetylating properties of white rats was examined during the experiments.
The experiments were carried out using mongrel pubescent male rats. 14 animals were included in each group. The examined agent was injected intraperitoneally in a dose of 29 mg/kg. On the 4th day 4 hours after the last injection of the examined agent the sodium sulfacyl solution in a dose of 20 mg/kg was injected intraperitoneally. All the rats were separated into exchangeable cages for urine gathering. The resulting data were compared with the control groups (group I - only received sodium sulfacyl in a dose of 20 mg/kg, and group II received calcium D-pantothenate).
The average weight of the animals in the group fluctuated within 154.7 ± 10.8 g, the absolute dose of sodium sulfacyl was 3.09 ± 0.14 mg.

[2] = in vivo; details: mouse, po
Procedure: (§1) To determine acute toxicity of ketopanthenol, non-linear white mice of both sexes with the average mass of 19 ± 3 g were used. There were 72 mice in the experiment, the animals were divided into 12 groups, 6 animals in each group. The mice of the first 6 groups received ketopanthenol in 0.2 ml of distilled water once internally in doses: 20.0, 21.0, 22.0, 23.0, 24.0 and 25.0 g/kg.
(§2) The 12 group was the control one, the mice of this group received once internally only 0.2 ml of distilled water.
(§3) The mice were under observation for 14 days.
(§4) The LD50 calculations were carried out according to Kerber

[3] = test system: non-linear white mice; test: in vivo; details: mouse
Procedure: as §1, §2, §3, §4

[4] = test system: non-linear white rats; test: Subchronic toxicity and local irritating effect, 2 months daily dosing, mass growth; format: in vivo
Procedure: The study of subchronic toxicity and the local irritating effect of ketopanthenol.
In the experiment carried out for 2 months, non-linear white rats of both sexes with the average initial weight of 75 ± 3.3 g were used. The animals were divided into 7 groups. The first three groups received daily, during the whole experimental period, ketopanthenol in 0.2 ml of distilled water in doses of 13.2 mg/kg (which corresponds to the therapeutic dose of vitamin B3), 132.0 and 264 mg/kg (in doses 10 and 20 times larger than the therapeutic dose). […] The animals of the seventh group were used as control, receiving internally 0.2 ml of distilled water daily.
During the whole experiment the animals were weighed once a week and the observation on their development, state and behavior was carried out.

[5] = test system: conjunctive bag of the eye; test: Eye irritation, aqueous solution dripped into the conjunctive bag; format: in vivo; details: eye of 5 rabbits, three days
Source text: The aqueous solution of ketopanthenol was dripped into the conjunctive bag of the eye of 5 rabbits weighing 2.5 ± 0.3 kg for three days.

[6] = Solubility in solvents; format: physicochemical
[7] = dose 10 times larger than the therapeutic dose (132.0 mg/kg), 2 months
[8] = dose 20 times larger than the therapeutic dose (264 mg/kg), 2 months
[9] = rats, 13.2 mg/kg daily, 2 months
[10] = rats, 132.0 mg/kg daily, 2 months
[11] = rats, 264.0 mg/kg daily, 2 months
[12] = therapeutic dose (13.2 mg/kg), 2 months

| SMILES | % of excretion from the dose, In acetylated form [1] | % of excretion from the dose, In free form [1] | Acetylating properties of the organism [1] | Concentration in urine, In acetylated form [1] | Concentration in urine, In free form [1] | Na sulfacyl excretion, Sulfacyl isolation M ± m, In acetylated form [1] | Na sulfacyl excretion, Sulfacyl isolation M ± m, In free form [1] | Na sulfacyl excretion, Sulfacyl isolation M ± m, Total [1] | Na sulfacyl excretion, Excretion % from the dose [1] | MTD at 336 h [2] | growth of the mass of the rats, higher in comparison with the control animals [4, 7] | growth of the mass of the rats, higher in comparison with the control animals [4, 8] | Mass growth during the experiment [4, 9] | Mass growth during the experiment, % to the control [4, 9] | Mass, Final [4, 9] | Mass growth during the experiment [4, 10] | Mass growth during the experiment, % to the control [4, 10] | Mass, Final [4, 10] | Mass growth during the experiment [4, 11] | Mass growth during the experiment, % to the control [4, 11] | further results |
| --- | --- | --- | --- | --- | --- | --- | --- | --- | --- | --- | --- | --- | --- | --- | --- | --- | --- | --- | --- | --- | --- |
| CC(C)(CO)C(=O)C(=O)NCCCO [ketopanthenol] | 32.0 ± 2.3% | 62.1 ± 2.9% | 34.0 | 0.36 mg/mL | 0.71 mg/mL | 0.99 ± 0.4 | 1.92 ± 0.09 | 2.91 ± 0.21 | 94.2% | 21000 mg/kg | 12.0% | 6.5% | 132.7 ± 10.7 g | 103.72% | 210.7 ± 18.1 | 134.3 ± 8.4 g | 112.0% | 209.5 ± 22.5 | 127.7 ± 11.0 g | 106.5% | excretion of the sulfacyl in its free form, lower ([1]; compared with the series I (control)): 20%; increase of the acetylating properties of the organism ([1]; in comparison with calcium D-pantothenate): 1.5 times; increase of the excretion of the acetylated product ([1]; in comparison with group II (calcium D-pantothenate)): 1.7 times; increase of the acetylating properties of the organism ([1]; in comparison with the control): 3.6 times; increase of the excretion of the acetylated product ([1]; in comparison with the control group): 4 times; LD50 at 336 h [2]: 23500 mg/kg; dose from which mice lost mobility, had quickened breathing, inertia, narrowed eye slots [3]: ≥ 22000 mg/kg; LD100 ([3]; 20160 min): 25000 mg/kg; Mass, Final [4, 11]: 200.1 ± 12.3; changes in development, state and behavior of the animals ([4]; rats, 2 months, in comparison with the control rats): No changes; toxic influence on the animals' organism ([4]; rats, prolonged period (2 months)): no toxic influence; also recorded: no toxic effect; local irritating effect ([4]; rats, visual examination of the internal organs after slaughtering): no local irritating effect was observed; growth of the mass of the rats, higher in comparison with the control animals [4, 12]: 10.7%; irritating effect [5]: No irritating effect was observed; solubility ([6]; in ether): poor solubility; solubility ([6]; in water, alcohols, acetone, chloroform): good solubility |
| CC(C)(CO)[C@@H](O)C(=O)NCCCO [D-panthenol, D-pantothenyl alcohol, reference compound] | – | – | – | – | – | – | – | – | – | 21000 mg/kg | 9.3% | 5.2% | 129.5 ± 8.5 g | 108.0% | 202.0 ± 16.4 | 131.1 ± 8.5 g | 109.3% | 205.1 ± 16.0 | 126.1 ± 9.3 g | 105.2% | Mass, Final [4, 11]: 197.3 ± 18.8; growth of the mass of the rats, higher in comparison with the control animals [4, 12]: 8.0% |
| CC(C)(CO)[C@@H](O)C(=O)NCCC(=O)O [D (+) pantothenate Ca, calcium D-pantothenate, reference compound] | 22.3 ± 1.8% | 70.7 ± 6.0% | 24.0 | 0.172 mg/mL | 0.54 mg/mL | 0.67 ± 0.04 | 2.12 ± 0.09 | 2.79 ± 0.19 | 93.0% | – | – | – | – | – | – | – | – | – | – | – | – |
